{"source": "ChEMBL document CHEMBL1151997", "about": "“Structural analogues of the michellamine anti-HIV agents. Importance of the tetrahydroisoquinoline rings for biological activity” (Bioorg Med Chem Lett, 1997)", "key": {"[1]": {"test_system": "Human immunodeficiency virus 1", "experiment": "In vitro anti-HIV-1 activity in CEM-SS cytoprotection assay; No activity.", "assay_type": "functional, organism-based"}, "CEM-SS": {"test_system": "CEM-SS", "experiment": "In vitro cytotoxicity in CEM-SS cell line up to a concentration of 100 uM.", "assay_type": "functional, cell-based", "conditions": "Homo sapiens; call rule not given here"}}, "data": [{"smiles": "COc1cccc2c(-c3ccccc3)cc(-c3cc(-c4ccccc4)c4cccc(OC)c4c3O)c(O)c12", "values": [{"measurement": "EC50", "setting": "[1]", "result": "Not Active"}, {"measurement": "IC50", "setting": "CEM-SS", "result": "> 100", "unit": "µM"}]}, {"smiles": "COc1cc(C)cc2c(-c3ccc4c(c3)OCO4)cc(-c3cc(-c4ccc5c(c4)OCO5)c4cc(C)cc(OC)c4c3O)c(O)c12", "values": [{"measurement": "EC50", "setting": "[1]", "result": "Not Active"}, {"measurement": "IC50", "setting": "CEM-SS", "result": "> 100", "unit": "µM"}]}, {"smiles": "COc1cc(OC)c2c(O)c(-c3cc(-c4ccc(O)cc4O)c4cc(OC)cc(OC)c4c3O)cc(-c3ccc(O)cc3O)c2c1", "values": [{"measurement": "EC50", "setting": "[1]", "result": "Not Active"}, {"measurement": "IC50", "setting": "CEM-SS", "result": 3.9, "unit": "µM"}]}, {"smiles": "COc1cccc2c(-c3ccc(O)cc3O)cc(-c3cc(-c4ccc(O)cc4O)c4cccc(OC)c4c3O)c(O)c12", "values": [{"measurement": "EC50", "setting": "[1]", "result": "Not Active"}, {"measurement": "IC50", "setting": "CEM-SS", "result": 2.2, "unit": "µM"}]}, {"smiles": "COc1cc(OC)c2c(O)c(-c3cc(-c4ccc5c(c4)OCO5)c4cc(OC)cc(OC)c4c3O)cc(-c3ccc4c(c3)OCO4)c2c1", "values": [{"measurement": "EC50", "setting": "[1]", "result": "Not Active"}, {"measurement": "IC50", "setting": "CEM-SS", "result": "> 100", "unit": "µM"}]}, {"smiles": "COc1cccc2c(-c3cccc(N)c3)cc(-c3cc(-c4cccc(N)c4)c4cccc(OC)c4c3O)c(O)c12", "values": [{"measurement": "EC50", "setting": "[1]", "result": "Not Active"}, {"measurement": "IC50", "setting": "CEM-SS", "result": "> 100", "unit": "µM"}]}, {"smiles": "COc1cc(OC)c2c(O)c(-c3cc(-c4cccc([N+](=O)[O-])c4)c4cc(OC)cc(OC)c4c3O)cc(-c3cccc([N+](=O)[O-])c3)c2c1", "values": [{"measurement": "EC50", "setting": "[1]", "result": "Not Active"}, {"measurement": "IC50", "setting": "CEM-SS", "result": "> 100", "unit": "µM"}]}, {"smiles": "COc1cc(OC)c2c(O)c(-c3cc(-c4cccc(N)c4)c4cc(OC)cc(OC)c4c3O)cc(-c3cccc(N)c3)c2c1", "values": [{"measurement": "EC50", "setting": "[1]", "result": "Not Active"}, {"measurement": "IC50", "setting": "CEM-SS", "result": "> 100", "unit": "µM"}]}, {"smiles": "COc1cccc2c(-c3cccc([N+](=O)[O-])c3)cc(-c3cc(-c4cccc([N+](=O)[O-])c4)c4cccc(OC)c4c3O)c(O)c12", "values": [{"measurement": "EC50", "setting": "[1]", "result": "Not Active"}, {"measurement": "IC50", "setting": "CEM-SS", "result": "> 100", "unit": "µM"}]}, {"smiles": "COc1cc(C)cc2c(-c3cccs3)cc(-c3cc(-c4cccs4)c4cc(C)cc(OC)c4c3O)c(O)c12", "values": [{"measurement": "EC50", "setting": "[1]", "result": "Not Active"}, {"measurement": "IC50", "setting": "CEM-SS", "result": "> 100", "unit": "µM"}]}, {"smiles": "COc1cc(C)cc2c(-c3ccc(O)cc3O)cc(-c3cc(-c4ccc(O)cc4O)c4cc(C)cc(OC)c4c3O)c(O)c12", "values": [{"measurement": "EC50", "setting": "[1]", "result": "Not Active"}, {"measurement": "IC50", "setting": "CEM-SS", "result": 2.6, "unit": "µM"}]}, {"smiles": "COc1cccc2c(-c3ccc4c(c3)OCO4)cc(-c3cc(-c4ccc5c(c4)OCO5)c4cccc(OC)c4c3O)c(O)c12", "values": [{"measurement": "EC50", "setting": "[1]", "result": "Not Active"}, {"measurement": "IC50", "setting": "CEM-SS", "result": "> 100", "unit": "µM"}]}, {"smiles": "COc1cccc2c(-c3cccs3)cc(-c3cc(-c4cccs4)c4cccc(OC)c4c3O)c(O)c12", "values": [{"measurement": "EC50", "setting": "[1]", "result": "Not Active"}, {"measurement": "IC50", "setting": "CEM-SS", "result": "> 100", "unit": "µM"}]}, {"smiles": "COc1cc(C)cc2c(-c3cccc([N+](=O)[O-])c3)cc(-c3cc(-c4cccc([N+](=O)[O-])c4)c4cc(C)cc(OC)c4c3O)c(O)c12", "values": [{"measurement": "EC50", "setting": "[1]", "result": "Not Active"}, {"measurement": "IC50", "setting": "CEM-SS", "result": "> 100", "unit": "µM"}]}, {"smiles": "COc1cc(OC)c2c(O)c(-c3cc(-c4ccccc4)c4cc(OC)cc(OC)c4c3O)cc(-c3ccccc3)c2c1", "values": [{"measurement": "EC50", "setting": "[1]", "result": "Not Active"}, {"measurement": "IC50", "setting": "CEM-SS", "result": "> 100", "unit": "µM"}]}, {"smiles": "COc1cc(C)cc2c(-c3cccc(N)c3)cc(-c3cc(-c4cccc(N)c4)c4cc(C)cc(OC)c4c3O)c(O)c12", "values": [{"measurement": "EC50", "setting": "[1]", "result": "Not Active"}, {"measurement": "IC50", "setting": "CEM-SS", "result": "> 100", "unit": "µM"}]}, {"smiles": "COc1cc(OC)c2c(O)c(-c3cc(-c4cccs4)c4cc(OC)cc(OC)c4c3O)cc(-c3cccs3)c2c1", "values": [{"measurement": "EC50", "setting": "[1]", "result": "Not Active"}, {"measurement": "IC50", "setting": "CEM-SS", "result": "> 100", "unit": "µM"}]}, {"smiles": "COc1cc(C)cc2c(-c3ccccc3)cc(-c3cc(-c4ccccc4)c4cc(C)cc(OC)c4c3O)c(O)c12", "values": [{"measurement": "EC50", "setting": "[1]", "result": "Not Active"}, {"measurement": "IC50", "setting": "CEM-SS", "result": "> 100", "unit": "µM"}]}]}
